The results in this text go back to ChEMBL document CHEMBL1155556, “New macrolactins from a marine Bacillus sp. Sc026” (2000).

Common to all, as to format: functional
Holding throughout (settings): read-out: IZ

The subject of assay [1] is Staphylococcus aureus. Briefly: Antibacterial activity against Staphylococcus aureus ATCC 25923 at 100 ug/disk by agar diffusion assay. On the technique in general: In agar diffusion tests the substance spreads into inoculated agar from a disc or well.
In assay [2] the test system is Bacillus subtilis. Briefly: Antibacterial activity against Bacillus subtilis ATCC 6633 at 100 ug/disk by agar diffusion assay.
Assay [3] relates to Staphylococcus aureus. The assay can be described thus: Antibacterial activity against Staphylococcus aureus ATCC 25923 at 50 ug/disk by agar diffusion assay.
Assay [4] deals with Bacillus subtilis. Briefly: Antibacterial activity against Bacillus subtilis ATCC 6633 at 50 ug/disk by agar diffusion assay.

In the case of `C[C@@H]1CCC/C=C/CCC(=O)C[C@@H](O)C/C=C\C=C\[C@@H](O)C/C=C/C=C\C(=O)O1` [MACROLACTIN F], the values for the zone of inhibition at 100 µg/disc in the assay with Staphylococcus aureus [1] and with Bacillus subtilis [2] were 28 mm and 8 mm, respectively.
`C[C@@H]1CCC/C=C/C=C/[C@H](O)C[C@@H](O)C/C=C\C=C\[C@@H](OC(=O)CCC(=O)O)C/C=C/C=C\C(=O)O1` [7-O-SUCCINYL MACROLACTIN A]: the zone of inhibition at 50 µg/disc in the assay on Staphylococcus aureus [3] worked out at 24 mm; with Bacillus subtilis [4], 10 mm.
For `C[C@@H]1CCC/C=C/CCC(=O)C[C@@H](O)C/C=C\C=C\[C@@H](OC(=O)CCC(=O)O)C/C=C/C=C\C(=O)O1`, the zone of inhibition at 100 µg/disc came out at 8 mm with Staphylococcus aureus [1] and 9 mm with Bacillus subtilis [2].
